The source of these data is patent publication US20090233841A1, “ANALGESIC CONJUGATES” (Regents of the University of Minnesota, priority 2005, published 2009).

The structures appear in SMILES notation. Entries after “also recorded” stand apart in the source; their conditions may differ.

For series [1], the system named is male ICR mice. Put plainly: Mouse radiant heat tail flick assay after acute ICV administration. It is filed as in vivo. The conditions noted are these: mouse tail flick, acute ICV administration; for ED50 nmol (95% C.L.), antinociceptive potency: conjugates and coadministration; for Ligand ED50 pmol (95% C.L.), antinociceptive potency: mu control ligands. As to the method:
Acute drug administration. Drugs were dissolved in sterile saline (0.9% NaCl). Animals were anesthetized with halothane and drugs were administered with a Hamilton syringe mated to a shortened (3 mm) 27-g needle in a volume of 4 μl by ICV injection into the lateral cerebral ventricle (Haley et al., 1957). The injection site was 1.6 mm lateral and 0.6 mm caudal to bregma.
Antinociceptive testing. […] Mice were tested once before injection (control time).
Background: In hot-plate and tail-flick tests a longer latency is read as antinociception.

In series [2] the test system is male ICR mice. The series can be described thus: Tolerance: tail flick ED50 after 3-day chronic ICV infusion (osmotic minipump). It is filed as in vivo, mouse. The settings on record: for tolerance on chronic ICV administration: 3-day ICV infusion; for Chronic ED50 nmol (95% C.L.): compound chronically administered ICV for 3 days, then challenge doses; for Saline ED50 nmol (95% C.L.): saline chronically administered ICV for 3 days, then challenge doses of compound; for fold increase in ED50 value after chronic ICV infusion: three-day ICV infusion. As for the experimental part: (§1) Chronic administration To investigate tolerance and dependence associated with these conjugates, chronic ICV administration studies were performed. The compound of interest was administered ICV via a cannula using an osmotic minipump for 3 days, as previously described (Gomori et al., 2003; Mashiko et al., 2003). Withdrawal was measured by administering naloxone (1 mg/kg; subcutaneous (sc)) and counting the naloxone-precipitated jumps for 10 minutes. Tolerance was determined by administering challenge doses of the compound after chronic infusion for 3 days, and determining the chronic ED50 value at that time.
(§2) Chronic ICV infusion. Osmotic minipumps (model 1003D, Alzet, Durect Corporation, Cupertino, Calif.) were filled with saline or the drug to be tested. The dose of each drug was twelve times its ED50 (nmol)/hour. The minipumps were connected by a 1.6-1.8 cm length of PE-60 tubing to a 3-mm long cannula (osmotic pump connector cannula, Plastics One, Roanoke, Va.) and primed in sterile saline at 37° C. overnight.
(§3) The next day, mice were anesthetized with Avertin (2,2,2-tribromoethanol (370 mg/kg, IP)/tert amyl alcohol (0.16 mg/kg, IP)) before surgery. The scalp was shaved and an incision was made along the midline of the scalp. Hemostats were used to make a pocket under the skin between the shoulder blades. The skull was scraped clean of periosteum so that the cannula pedestal would properly adhere to the skull. A micro drill (Fine Science Tools Inc., Foster City, Calif.) was used to drill a hole approximately 1.6 mm lateral and 0.6 mm caudal to bregma. The minipump was placed between the shoulder blades, the cannula was inserted in the drilled hole into the lateral ventricle, and the cannula pedestal was affixed to the skull with cyanoacrylate glue. The animals were allowed to recover on a heating pad (Fine Science Tools, Foster City, Calif.) and were returned to their cages in the animal facility for three days.
To test the degree of tolerance developed, the osmotic minipump was removed and the mice were returned to their cages for four hours. The mice were then injected with the test drug into the contralateral lateral cerebral ventricle and antinociception was measured with the tail flick test as described above.

The test system of series [3] is male ICR mice. Put plainly: Physical dependence: naloxone-precipitated withdrawal jumping after chronic ICV infusion. It is filed as in vivo, mouse. The conditions noted are these: for physical dependence on chronic ICV administration: 3-day ICV infusion, naloxone-precipitated jumping; for # of Jumps (SEM), naloxone-precipitated withdrawal: average jumps in 10 minutes after naloxone 1 mg/kg sc, after 3-day ICV infusion. As to the method: as §1, §2, §3
Testing for dependence and tolerance. The development of physical dependence was assessed by quantifying withdrawal jumping observed during precipitated withdrawal (Way et al., 1969) on the fourth day after surgery. Mice were injected with naloxone (1 mg/kg, sc) and placed into Plexiglas cylinders for 10 minutes. During those 10 minutes, vertical jumps were counted as withdrawal signs.

Turning to `CN1CCC23c4c5ccc(O)c4OC2C(NC(=O)COCC(=O)NCCCNC(=O)COCC(=O)Nc2cccc4c6c([nH]c24)C2Oc4c(O)ccc7c4C24CCN(CC2CC2)C(C7)C4(O)C6)CCC3(O)C1C5` (centres unmarked) [Compound 4], in the series on male ICR mice [1], the “ED50 nmol (95% C.L.), antinociceptive potency” value is given as 1.49 (1.04-1.95) nmol. In addition, the “tolerance on chronic ICV administration” value with male ICR mice [2] (listed as MDAN-17) is given as “produced tolerance; also recorded: tolerance without physical dependence developed”. In addition, in the series with male ICR mice [2], the “Chronic ED50 nmol (95% C.L.)” value was 5.61 (4.39-6.83) nmol, the “Saline ED50 nmol (95% C.L.)” value was 1.54 (0.89-2.20) nmol and the “fold increase in ED50 value after chronic ICV infusion” value is recorded as 3.6 fold. Also, in the series with male ICR mice [3] (listed as MDAN-17), the “physical dependence on chronic ICV administration” value (shortened to “physical dependence”) was “without producing dependence; also recorded: without physical dependence” and the “# of Jumps (SEM), naloxone-precipitated withdrawal” value (“# of Jumps (SEM)” for short) stood at 0.94. Moreover, the “# of Jumps (SEM)” value in the series with male ICR mice [3] is given as 0.9 (0.7).

As for `CN1CCC23c4c5ccc(O)c4OC2C(NC(=O)COCC(=O)NCCCCNC(=O)COCC(=O)Nc2cccc4c6c([nH]c24)C2Oc4c(O)ccc7c4C24CCN(CC2CC2)C(C7)C4(O)C6)CCC3(O)C1C5` (centres unmarked) [Compound 5], the “ED50 nmol (95% C.L.), antinociceptive potency” value in the series with male ICR mice [1] is recorded as 0.95 (0.68-1.23) nmol. For the same compound, in the series with male ICR mice [2] (listed as MDAN-18), the “tolerance on chronic ICV administration” value is given as “produced tolerance; also recorded: tolerance without physical dependence developed”. In addition, in the series on male ICR mice [2], the “Chronic ED50 nmol (95% C.L.)” value is 4.75 (3.50-6.00) nmol, the “Saline ED50 nmol (95% C.L.)” value was 1.29 (0.97-1.61) nmol and the “fold increase in ED50 value after chronic ICV infusion” value is listed as 3.7 fold. In addition, in the series with male ICR mice [3] (listed as MDAN-18), the “physical dependence” value is on record as “without producing dependence; also recorded: without physical dependence” and the “# of Jumps (SEM)” value is on record as 8.9. For the same compound, in the series with male ICR mice [3], the “# of Jumps (SEM)” value was 8.9 (3.0).

Consider `CN1CCC23c4c5ccc(O)c4OC2C(NC(=O)COCC(=O)NCCCCCCNC(=O)COCC(=O)Nc2cccc4c6c([nH]c24)C2Oc4c(O)ccc7c4C24CCN(CC2CC2)C(C7)C4(O)C6)CCC3(O)C1C5` (stereo not drawn) [Compound 7, 7′-{2-[(6-{2-[({(5α,6α)-4,5-Epoxy-3,14-dihydroxy-17-methylmorphin-6-yl}-aminocarbonyl)-methoxy]-acetylamino}-hexylaminocarbonyl)-methoxy]-acetylamino}-naltrindole], for which the “ED50 nmol (95% C.L.), antinociceptive potency” value in the series with male ICR mice [1] is 0.17 (0.15-0.19) nmol. Moreover, the “tolerance on chronic ICV administration” value in the series on male ICR mice [2] (listed as MDAN-20) was “no tolerance or dependence was observed; also recorded: produced no tolerance or physical dependence”. Moreover, in the series on male ICR mice [2], the “Chronic ED50 nmol (95% C.L.)” value is on record as 0.17 (0.13-0.21) nmol and the “Saline ED50 nmol (95% C.L.)” value is on record as 0.17 (0.15-0.20) nmol. Also, the “physical dependence” value in the series on male ICR mice [3] (listed as MDAN-20) was “no tolerance or dependence was observed; also recorded: produced no tolerance or physical dependence”. For the same compound, the “# of Jumps (SEM)” value with male ICR mice [3] is reported as 0.4 (0.4).

As for `CNC(=O)COCC(=O)NCCNC(=O)COCC(=O)NC1CCC2(O)C3Cc4ccc(O)c5c4C2(CCN3C)C1O5` (centres unmarked) [Compound 9, reference compound], the “Ligand ED50 pmol (95% C.L.), antinociceptive potency” value in the series on male ICR mice [1] was 39.39 pmol.

Take `CNC(=O)COCC(=O)NCCCNC(=O)COCC(=O)NC1CCC2(O)C3Cc4ccc(O)c5c4C2(CCN3C)C1O5` (centres unmarked) [Compound 10, reference compound]: the “Ligand ED50 pmol (95% C.L.), antinociceptive potency” value in the series on male ICR mice [1] was 39.69 pmol.

Turning to `CNC(=O)COCC(=O)NCCCCCCNC(=O)COCC(=O)N[C@H]1CC[C@@]2(O)[C@H]3Cc4ccc(O)c5c4[C@@]2(CCN3C)[C@H]1O5` [Compound 13, (5α,6α)-6-{2-[(6-{2-[(Methylaminocarbonyl)-methoxy]-acetylamino}-hexylaminocarbonyl)-methoxy]-acetylamino}-4,5-epoxy-3,14-dihydroxy-17-methylmorphinan, reference compound], in the series on male ICR mice [1], the “Ligand ED50 pmol (95% C.L.), antinociceptive potency” value came out at 37.25 pmol.

Consider `CNC(=O)COCC(=O)NCCCCCCCNC(=O)COCC(=O)NC1CCC2(O)C3Cc4ccc(O)c5c4C2(CCN3C)C1O5` (centres unmarked) [Compound 14, reference compound], for which the “Ligand ED50 pmol (95% C.L.), antinociceptive potency” value with male ICR mice [1] was 43.56 pmol.
